From US7691572B2, “Method and kit for detecting resistance to antiviral drugs” (priority 1998, dated 2010)
“And” between values parts separate entries of the source, which are not always exact repeats. Equal values may be shown once. Read-outs that look alike come from different tables or passages of the source.

Experiments:
HIV-1 RT [1] = test: Amp-RT assay, AZT-TP and other NRTI-TPs, reference viruses; format: biochemical
HIV-1 RT [2] = biological target: HIV-1 RT (Human immunodeficiency virus type 1 group M subtype B, UniProt P04585, M628L/L661V/V693A/T802Y); conditions: 50 μM; HIV-1RTMDR1/MT-2 (74V/41L/106A/215Y)
Method: (§1) For culture supernatant, 10 μl were used directly in the Amp-RT assay. For plasma testing, a volume of 100 μl was clarified by centrifugation at 10,000 g for five minutes and then ultracentrifuged at a fixed angle at 99,000 g for 1 hour at 4° C. The viral pellet was resuspended in 100 μl of RT buffer (50 mM Tris-HCl, 50 mM KCl, 10 mM MgCl2). Ten microliter aliquots of virus pellets were applied to an RT buffer containing 10 ng of EMCV RNA template, 10 units of RNasin, 0.6% NP-40, 100 ng of the 5′-biotin-labeled EMCR2 antisense primer, 1 nM EGTA, 2 mM dithiothreitol, 50 mM Tris-HCl, 50 mM KCl, 10 mM MgCl2, and 400 uM of each dNTP. Reactions were incubated at 37° C. for 2 hours and then heated at 95° C. for five minutes to destroy RT activity. […] The conditions for PCR were 35 cycles at 95° C. for one minute, 55° C. for one minute, and 72° C. for one minute.
(§2) For quantitation of RT levels, a standard curve was generated by using known RT units from a reference HIV-1 stock (Virology Quality Assurance Laboratory, Rush-Presbyterian-St. Luke's Medical Center, Chicago, Ill.). […] All samples were tested within the linear range of the Amp-RT assay (from 10^−6 to 10^−10 units of RT activity). Samples which had levels of RT activity above the linear range of the assay, were further diluted in RT buffer and retested again. The minimum detectable level of HIV-1 RT activity by the Amp-RT in plasma is 10^−10 units, the equivalent of 1 HIV-1 particle of the reference virus used for quantitation. The results of Amp-RT signals were expressed as units of RT activity per milliliter of plasma and reflect the average of duplicate results.

HIV-1 RT [3] = system: HIV-1 RT
Method: as §1, §2

plasma HIV-1 RT = plasma HIV-1 RT (Human immunodeficiency virus type 1, UniProt P04585); conditions: 50 μM nevirapine
Method: as §1, §2

HIV-1 isolates = conditions: read-out: IC50 Culture, cited from earlier work
[4] = MNR HIV-1SUM12 (F77L, F116Y, Q151M)
[5] = MNR HIV-1SUM13 (A62V, V75I, F77L, F116Y, Q151M)

With `Cc1cn([C@H]2C=C[C@@H](COP(=O)(O)OP(=O)(O)OP(=O)(O)O)O2)c(=O)[nH]c1=O` [d4T-TP] the IC50 (HIV-1 RT [1]; MNR HIV-1SUM8 (Q151M)) was 320 nM, the “fold resistance (IC50) as compared to the mean IC values of WT HIV-1” value (“fold resistance (IC50)” for short) (HIV-1 RT [1]; MNR HIV-1SUM8 (Q151M)) was “(9.1) fold” and the IC50 (HIV-1 RT [1]; [4]) was 370 nM. The “fold resistance (IC50)” value (HIV-1 RT [1]; [4]) was “(10.6) fold”, the IC50 (HIV-1 RT [1]; [5]) was 370 nM and the “fold resistance (IC50)” value (HIV-1 RT [1]; [5]) was “(10.6) fold”. For the same compound, the IC50 (HIV-1 RT [1]; WT HIV-1LAI) was 15 nM and the IC50 (HIV-1 RT [1]; WT HIV-1SUM9) was 55 nM.
With `Nc1ncnc2c1ncn2[C@H]1CC[C@@H](COP(=O)(O)OP(=O)(O)OP(=O)(O)O)O1` [ddA-TP] the IC50 (HIV-1 RT [1]; MNR HIV-1SUM8 (Q151M)) was 1200 nM, the “fold resistance (IC50)” value (HIV-1 RT [1]; MNR HIV-1SUM8 (Q151M)) was “(6.5) fold” and the IC50 (HIV-1 RT [1]; [4]) was 1100 nM. For the same compound, the “fold resistance (IC50)” value (HIV-1 RT [1]; [4]) was “(5.9) fold”, the IC50 (HIV-1 RT [1]; [5]) was 6000 nM and the “fold resistance (IC50)” value (HIV-1 RT [1]; [5]) was “(32.4) fold”. It also gave an IC50 (HIV-1 RT [1]; WT HIV-1SUM9) of 270 nM and an IC50 (HIV-1 RT [1]; WT HIV-1xxBRUpitt) of 100 nM.
With `Nc1ccn([C@H]2CC[C@@H](COP(=O)(O)OP(=O)(O)OP(=O)(O)O)O2)c(=O)n1` [ddC-TP, ddC-triphosphate] the IC50 (HIV-1 RT [1]; MNR HIV-1SUM8 (Q151M)) was 1800 nM, the “fold resistance (IC50)” value (HIV-1 RT [1]; MNR HIV-1SUM8 (Q151M)) was “(3.6) fold” and the IC50 (HIV-1 RT [1]; [4]) was 6000 nM. For the same compound, the “fold resistance (IC50)” value (HIV-1 RT [1]; [4]) was “(12) fold”, the IC50 (HIV-1 RT [1]; [5]) was 7500 nM and the “fold resistance (IC50)” value (HIV-1 RT [1]; [5]) was “(15) fold”. For the same compound, the IC50 (HIV-1 RT [1]; WT HIV-1LAI) was 500 nM and the IC50 (HIV-1 RT [1]; WT HIV-1SUM9) was 500 nM.
In the case of `Cc1ccnc2c1NC(=O)c1cccnc1N2C1CC1` [nevirapine], the “Inhibition of RT by Nevirapine” value (HIV-1 RT [2]) is reported as “partially inhibited”, the “inhibition of RT” value (HIV-1 RT [3]; 50 μM nevirapine, isolate W786-6, 8.3×10^−9 units of RT activity) is reported as “no significant inhibition” and the “Inhibition of RT. (%)” value (HIV-1 RT [3]; 50 μM nevirapine, isolate W786-6, input 5.6 × 10^−8 units) is reported as 0%. The “Inhibition of RT. (%)” value (HIV-1 RT [3]; 50 μM nevirapine, isolate X267-1, input 6.9 × 10^−9 units) was “complete inhibition and 100%”, the “Inhibition of RT. (%)” value (HIV-1 RT [3]; 50 μM nevirapine, isolate X267-1, input 7.1 × 10^−7 units) was 98.6% and the “Inhibition of RT. (%)” value (HIV-1 RT [3]; 50 μM nevirapine, isolate X267-1, input 7.1 × 10^−7 units, listed as Nevirapine) was 98.7%. The “Inhibition of RT. (%)” value (HIV-1 RT [3]; 50 μM nevirapine, isolate X267-1, input 7.2 × 10^−8 units) was “complete inhibition and 100%”, the “Inhibition of RT. (%)” value (HIV-1 RT [3]; 50 μM nevirapine, isolate X403-4, input 4.4 × 10^−7 units) was 16% and the “inhibition of RT” value (HIV-1 RT [3]; 50 μM nevirapine, isolates X403-4 and W786-6, high or low input of RT) was “no significant inhibition”. The “Inhibition of RT. (%)” value (HIV-1 RT [3]; 50 μM nevirapine, line under isolate X403-4, input 4.1 × 10^−7 units) was 0%, the “Inhibition of RT. (%)” value (HIV-1 RT [3]; 50 μM nevirapine, line under isolate X403-4, input 8.2 × 10^−9 units) was 0% and the RT inhibition (HIV-1 RT [3]; 50 μM nevirapine, mixture 10% resistant (W786-6) and 90% sensitive (X267-1) viruses) was 94%. The RT inhibition (HIV-1 RT [3]; 50 μM nevirapine, mixture containing 25% resistant viruses) was 80%, the RT inhibition (HIV-1 RT [3]; 50 μM nevirapine, mixture containing 75% resistant viruses) was 29% and the “inhibition of RT activity” value (HIV-1 RT [3]; 50 μM nevirapine, resistant isolates) was “little or no inhibition”. For the same compound, the RT inhibition (HIV-1 RT [3]; 50 μM nevirapine, sensitive isolate X267-1 alone) was over 99%, the “Inhibition of RT by Nevirapine” value (HIV-1 RT [3]; 50 μM, HIV-1RTMC/MT-2 (67N/70R/215F/219Q), AZT-resistant) was 91.8% and the “Inhibition of RT by Nevirapine” value (HIV-1 RT [3]; 50 μM, HIV-1RTMDR1/MT-2 (74V/41L/106A/215Y)) was 43%. For the same compound, the “Inhibition of RT by Nevirapine” value (HIV-1 RT [3]; 50 μM, L6KL5 (103N/75I/77L/116Y/151M)) was 7%, the “Inhibition of RT by Nevirapine” value (HIV-1 RT [3]; 50 μM, L6KL5 (103N/75I/77L/116Y/151M), listed as Nevirapine) was 0% and the “Inhibition of RT by Nevirapine” value (HIV-1 RT [3]; 50 μM, M184V/Y181CEU (184V/181C)) was 0%. For the same compound, the “Inhibition of RT by Nevirapine” value (HIV-1 RT [3]; 50 μM, M184Vpitt (184V), 3TC-resistant) was 98.8%, the “Inhibition of RT by Nevirapine” value (HIV-1 RT [3]; 50 μM, N119 (181C)) was 0% and the “Inhibition of RT by Nevirapine” value (HIV-1 RT [3]; 50 μM, N119 (181C), listed as Nevirapine) was 7%. The susceptibility to nevirapine (HIV-1 RT [3]; 50 μM, viruses containing mutations associated with AZT or 3TC resistance) was “susceptible”, the “Units of RT activity With 50 μM Nevirapine” value (“Units” for short) (HIV-1 RT [3]; isolate W786-6, 5.6 × 10^−8 without nevirapine) was 7.7 × 10^−8 Units of RT activity and the “Units” value (HIV-1 RT [3]; isolate X267-1, 7.1 × 10^−7 without nevirapine) was 9.1 × 10^−9 Units of RT activity. The “Units” value (HIV-1 RT [3]; isolate X403-4, 4.4 × 10^−7 without nevirapine) was 3.7 × 10^−7 Units of RT activity, the “Units” value (HIV-1 RT [3]; line under isolate X403-4, 4.1 × 10^−7 without nevirapine) was 5.0 × 10^−7 Units of RT activity and the “Units” value (HIV-1 RT [3]; line under isolate X403-4, 8.2 × 10^−9 without nevirapine) was 8.4 × 10^−9 Units of RT activity. For the same compound, the RT inhibition (plasma HIV-1 RT; patient N06, after 7 days of treatment) was 100%, the RT inhibition (plasma HIV-1 RT; patient N07, day 7 of treatment) was 24% and the RT inhibition (plasma HIV-1 RT; patient N12, after 7 days of treatment) was 94%. For the same compound, the RT inhibition (plasma HIV-1 RT; patient N12, day 14 of treatment) was 32%, the “mean RT inhibition” value (plasma HIV-1 RT; samples after more than two weeks of treatment) was 13.82% and the “mean RT inhibition” value (plasma HIV-1 RT; samples collected before therapy (n=7)) was 99.3%. The “mean RT inhibition” value (plasma HIV-1 RT; samples of the first six days of treatment (n=14)) was 98.2%, the IC50 (HIV-1 isolates; isolate S469-2/M3 (Y188L)) was 100000 nM and the IC50 (HIV-1 isolates; isolate X165-6 (no mutations)) was 70 nM. The IC50 (HIV-1 isolates; isolate X267-1 (no mutations)) was 40 nM.
